Target: T1, μ opiate receptor (MOR) (Rattus norvegicus, UniProt P33535)
T1 construct: from tissue; host or cells: striatal tissue (membrane preparation)
Assay: MOR agonist activity, [35S]GTPγS binding assay using striatal membranes
Format: biochemical
Conditions: for [35S]GTPγS binding to Gαo, FLNA-binding compound as agonist 0.1 μM: 0.1 μM compound; for [35S]GTPγS binding to Gαo, FLNA-binding compound as agonist 0.1 μM / [35S]GTPγS binding to Gαo, FLNA-binding compound as agonist 1 μM: striatal membranes; for [35S]GTPγS binding to Gαo, FLNA-binding compound as agonist 1 μM + BFNA: 1 μM compound + 1 μM β-funaltrexamine; for [35S]GTPγS binding to Gαo, FLNA-binding compound as agonist 1 μM: 1 μM compound; for % DAMGO + BFNA: relative to DAMGO + BFNA; for % DAMGO (0.1 μM) / % DAMGO (1 μM): relative to DAMGO
Procedure: To assess the μ opiate receptor (MOR) agonist activity of positive compounds from the FLNA screening, compounds were tested in a [^35S]GTPγS binding assay using striatal membranes.
Striatal tissue was homogenized in 10 volumes of ice cold 25 mM HEPES buffer, pH 7.4, which contained 1 mM EGTA, 100 mM sucrose, 50 μg/ml leupeptin, 0.04 mM PMSF, 2 μg/ml soybean trypsin inhibitor and 0.2% 2-mercaptoethanol. The homogenates were centrifuged at 800×g for 5 minutes and the supernatants were centrifuged at 49,000×g for 20 minutes. The resulting pellets were suspended in 10 volume of reaction buffer, which contained 25 mM HEPES, pH 7.5, 100 mM NaCl, 50 μg/ml leupeptin, 2 μg/ml soybean trypsin inhibitor, 0.04 mM PMSF and 0.02% […].
The resultant striatal membrane preparation (200 μg) was admixed and maintained (incubated) at 30° C. for 5 minutes in reaction buffer as above that additionally contained 1 mM MgCl2 and 0.5 nM [^35S]GTPγS (0.1 μCi/assay, PerkinElmer Life and Analytical Sciences) in a total volume of 250 μl and continued for 5 minutes in the absence or presence of 0.1-10 μM of an assayed compound of interest. The reaction was terminated by dilution with 750 μl of ice-cold reaction buffer that contained 20 mM MgCl2 and 1 mM EGTA and immediate centrifugation at 16,000×g for 5 minutes.
The resulting pellet was solubilized by sonicating for 10 seconds in 0.5 ml of immunoprecipitation buffer containing 0.5% digitonin, 0.2% sodium cholate and 0.5% NP-40. Normal rabbit serum (1 μl) was added to 1 ml of lysate and incubated at 25° C. for 30 minutes. Nonspecific immune complexes were removed by incubation with 25 μl of protein A/G-conjugated agarose beads at 25° C. for 30 minutes followed by centrifugation at 5,000×g at 4° C. for 5 minutes. The supernatant was divided and separately incubated at 25° C. for 30 minutes with antibodies raised against Gao proteins (1:1,000 dilutions).
The immunocomplexes so formed were collected by incubation at 25° C. for 30 minutes with 40 μl of agarose-conjugated protein A/G beads and centrifugation at 5,000×g at 4° C. for 5 minutes. The pellet was washed and suspended in buffer containing 50 mM Tris-HCl, pH 8.0, and 1% NP-40. The radioactivity in the suspension was determined by liquid scintillation spectrometry. […] DAMGO (H-Tyr-D-Ala-Gly-N-MePhe-Gly-OH; 1 or 10 μM) was used as a positive control.

T1 sequence (P33535 whole entry): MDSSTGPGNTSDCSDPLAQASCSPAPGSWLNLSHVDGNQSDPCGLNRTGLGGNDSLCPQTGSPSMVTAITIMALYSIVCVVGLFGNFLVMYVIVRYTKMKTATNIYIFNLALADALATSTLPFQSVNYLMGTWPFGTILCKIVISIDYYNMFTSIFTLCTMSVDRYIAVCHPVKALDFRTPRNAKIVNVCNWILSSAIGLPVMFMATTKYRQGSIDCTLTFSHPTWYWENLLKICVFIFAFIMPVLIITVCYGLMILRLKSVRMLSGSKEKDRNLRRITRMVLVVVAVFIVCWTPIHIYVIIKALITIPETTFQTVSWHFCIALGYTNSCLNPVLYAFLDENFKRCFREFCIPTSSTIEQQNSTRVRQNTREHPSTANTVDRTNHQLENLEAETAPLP

Row | Structure (SMILES) | [35S]GTPγS binding to Gαo, FLNA-binding compound as agonist 0.1 μM [%] | [35S]GTPγS binding to Gαo, FLNA-binding compound as agonist 1 μM + BFNA [%] | [35S]GTPγS binding to Gαo, FLNA-binding compound as agonist 1 μM [%] | % DAMGO + BFNA [%] | % DAMGO (0.1 μM) [%] | % DAMGO (1 μM) [%]
1 | COc1ccc(N2CCN(CC(O)COC3CC(C)CCC3C(C)C)CC2)c(OC)c1 (stereo not drawn) [Compound A0012] | 149.3 | 122.4 | 185.7 | – | – | –
2 | CC1CCC(C(C)C)C(OCC(O)Cn2ccc3ccccc32)C1 (stereo not drawn) [Compound A0078] | 250.5 | 147.8 | 289.9 | – | – | –
3 | CC1CCC(C(C)C)C(OCC(O)CN2CCCCC2=O)C1 (stereo not drawn) [Compound A0036] | 144.1 | 63.2 | 167.5 | – | – | –
4 | CC1CN(CC(O)COc2ccccc2Br)CC(C)O1 (stereo not drawn) [Compound A0043] | 183.3 | 89.1 | 223.8 | – | – | –
5 | CC1CN(CC(O)COC2CCCCC2)CC(C)O1 (stereo not drawn) [Compound A0017] | 161.9 | 65.2 | 246.0 | – | – | –
6 | CC1CCC(C(C)C)C(OCC(O)CN2CCCCCCC2)C1 (stereo not drawn) [Compound A0014] | 147.0 | 140.8 | 174.9 | – | – | –
7 | CC1CCC(C(C)C)C(OCC(O)CN2CCN(C)CC2)C1 (stereo not drawn) [Compound A0009] | 70.2 | 93.9 | 126.4 | – | – | –
8 | COc1c2c(cc3c1OCO3)CCN(CC(O)COC1CC(C)CCC1C(C)C)C2 (stereo not drawn) [Compound A0061] | 110.3 | 10.7 | 197.1 | – | – | –
9 | CC1CCC(C(C)C)C(OCC(O)CN2CCCCC2C)C1 (stereo not drawn) [Compound A0007] | 102.0 | 40.4 | 221.9 | – | – | –
10 | CC(=O)c1ccc(OCC(O)CN2CC(C)OC(C)C2)cc1 (stereo not drawn) [Compound A0044] | 176.2 | 134.7 | 209.1 | – | – | –
11 | CC1CCC(C(C)C)C(OCC(O)CN2CC(C)OC(C)C2)C1 (stereo not drawn) [Compound A0032-1] | 187.4 | 224.5 | 324.5 | 303.8 | 95.5 | 117.6
12 | COc1ccc(OCC(O)CN2CCc3ccccc3C2)cc1 (stereo not drawn) [Compound A0053] | 78.5 | 15.1 | 118.2 | – | – | –
13 | CC1CN(CC(O)COc2cccc(N(C)C)c2)CC(C)O1 (stereo not drawn) [Compound A0042] | 147.5 | 89.5 | 233.1 | – | – | –
14 | Cc1ccc(C(C)C)c(OCC(O)CN2CC(C)OC(C)C2)c1 (stereo not drawn) [Compound A0028] | 143.6 | 116.7 | 187.7 | – | – | –
15 | COc1ccc(OCC(O)CN2CCOc3ccccc32)cc1 (stereo not drawn) [Compound A0076] | 79.8 | 41.2 | 172.6 | 119.4 | 46.4 | 78.6
